In patent US20220389061A1, “IMMUNOMODULATORS” (priority 2019, published 2022) one finds IC50 data, which are given here for 13 molecules.

Broadly, the IC50 is the concentration needed to halve the response being measured.

Where two headings read alike, the source gives them in different places. Starred links: 1 amine or outer side, 2 acyl side, 3 side chain; linkers in the order of their positions; H or OH if unused. Positions of bridges follow the written chain, without caps; N, C: chain ends. Non-standard residues stand in square brackets, D forms with d. Residues, ends and D or L forms follow the SMILES beside them. Groups on a side chain read outwards from the residue. *: point of attachment. Trp(1-CH2CO2Me) = COC(=O)Cn1cc(C[C@H](N)C(=O)O)c2ccccc21; Trp(1-CH2COOH) = N[C@@H](Cc1cn(CC(=O)O)c2ccccc12)C(=O)O; NH(benzothiophen-5-yl) = c1cc2cc(N*)ccc2s1; X79 = CCn1c2ccccc2c2cc(NC(=S)*)ccc21; NH(1-naphthyl) = c1ccc2c(N*)cccc2c1; X1 = S=C(Nc1ccc2c(c1)Cc1ccccc1-2)*; 2Naphthoyl = O=C(c1ccc2ccccc2c1)*; Hyp = O=C(O)[C@@H]1C[C@@H](O)CN1; X34 = O=C(c1c2ccccc2cc2ccccc12)*; NMeNle = CCCC[C@H](NC)C(=O)O; X4 = S=C(Nc1ccc2c(c1)OCCO2)*; X7 = S=C(Nc1ccc2cc[nH]c2c1)*; X5 = S=C(Nc1cccc2ccccc12)*; X59 = S=C(Nc1ccc2nsnc2c1)*; NMeA = CN[C@@H](C)C(=O)O; βNA = c1ccc2cc(N*)ccc2c1; Dab = NCC[C@H](N)C(=O)O; Dap = NC[C@H](N)C(=O)O; CO = O=C([*:1])[*:2]

This assay deals with T1, PD-1/PD-L1 (Homo sapiens, UniProt Q9NZQ7).
T1 construct: TVMV protease site linker (C); made in house; host or cells: HEK293T cells
The assay is described as follows: PD-1/PD-L1 Homogenous Time-Resolved Fluorescence (HTRF) binding assay. An outline of the steps:
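HTRF read-out using europium cryptate anti-Ig (1 nM) and APC anti-His (20 nM) on extracellular-domain fusion proteins in dPBS/0.1% BSA/0.05% Tween-20. Inhibitor first incubated 15 min with 10 nM PD-L1-His, followed by 20 nM PD-1-Ig for another 15 min.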

The mark [1] stands for this setting: PD-L1-His 10 nM pre-incubated with inhibitor, PD-1-Ig 20 nM, read-out: HTRF IC50.

T1 sequence (Q9NZQ7 18-239): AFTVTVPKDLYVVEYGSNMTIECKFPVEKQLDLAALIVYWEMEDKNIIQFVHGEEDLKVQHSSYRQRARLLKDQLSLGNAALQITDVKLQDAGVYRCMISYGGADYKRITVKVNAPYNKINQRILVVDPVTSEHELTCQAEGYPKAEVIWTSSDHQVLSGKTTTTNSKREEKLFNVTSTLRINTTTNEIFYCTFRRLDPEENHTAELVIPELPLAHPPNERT

On to `CCCC[C@H]1C(=O)N(C)[C@@H](CCCC)C(=O)N[C@@H](CC(C)C)C(=O)N[C@H](C(=O)NCC(N)=O)CSCC(=O)N[C@@H](Cc2ccc(O)cc2)C(=O)N(C)[C@@H](C)C(=O)N[C@@H](CC(N)=O)C(=O)N2CCC[C@H]2C(=O)N[C@@H](CNC(=O)c2c3ccccc3cc3ccccc23)C(=O)N[C@@H](CC(C)C)C(=O)N2C[C@H](O)C[C@H]2C(=O)N[C@@H](Cc2c[nH]c3ccccc23)C(=O)N[C@@H](CCNC(=O)c2c3ccccc3cc3ccccc23)C(=O)N[C@@H](Cc2cn(CC(=O)O)c3ccccc23)C(=O)N1C` [Example 2011] ({CH2CO}-Y[NMeA]NP[Dap](X34)L[Hyp]W[Dab](X34)[Trp(1-CH2COOH)][NMeNle][NMeNle]LCG-NH2; thioether N-14), for which the half-inhibitory concentration (IC50) under setting [1] is 4.7 nM.
The same measure, in the same setting: the figure for `CCCC[C@H]1C(=O)N(C)[C@@H](CCCC)C(=O)N[C@@H](CC(C)C)C(=O)N[C@H](C(=O)NCC(N)=O)CSCC(=O)N[C@@H](Cc2ccc(O)cc2)C(=O)N(C)[C@@H](C)C(=O)N[C@@H](CC(N)=O)C(=O)N2CCC[C@H]2C(=O)N[C@@H](CNC(=S)Nc2ccc3c(c2)Cc2ccccc2-3)C(=O)N[C@@H](CC(C)C)C(=O)N2C[C@H](O)C[C@H]2C(=O)N[C@@H](Cc2c[nH]c3ccccc23)C(=O)N[C@@H](CCNC(=S)Nc2ccc3c(c2)Cc2ccccc2-3)C(=O)N[C@@H](Cc2cn(CC(=O)O)c3ccccc23)C(=O)N1C` [Example 2012] ({CH2CO}-Y[NMeA]NP[Dap](X1)L[Hyp]W[Dab](X1)[Trp(1-CH2COOH)][NMeNle][NMeNle]LCG-NH2; thioether N-14) is 15.2 nM; for `CCCC[C@H]1C(=O)N(C)[C@@H](CCCC)C(=O)N[C@@H](CC(C)C)C(=O)N[C@H](C(=O)NCC(N)=O)CSCC(=O)N[C@@H](Cc2ccc(O)cc2)C(=O)N(C)[C@@H](C)C(=O)N[C@@H](CC(N)=O)C(=O)N2CCC[C@H]2C(=O)N[C@@H](CNC(=S)Nc2ccc3c(c2)c2ccccc2n3CC)C(=O)N[C@@H](CC(C)C)C(=O)N2C[C@H](O)C[C@H]2C(=O)N[C@@H](Cc2c[nH]c3ccccc23)C(=O)N[C@@H](CCNC(=S)Nc2ccc3c(c2)c2ccccc2n3CC)C(=O)N[C@@H](Cc2cn(CC(=O)O)c3ccccc23)C(=O)N1C` [Example 2013] ({CH2CO}-Y[NMeA]NP[Dap](X79)L[Hyp]W[Dab](X79)[Trp(1-CH2COOH)][NMeNle][NMeNle]LCG-NH2; thioether N-14) it is 8.1 nM; for `CCCC[C@H]1C(=O)N(C)[C@@H](CCCC)C(=O)N[C@@H](CC(C)C)C(=O)N[C@H](C(=O)NCC(N)=O)CSCC(=O)N[C@@H](Cc2ccc(O)cc2)C(=O)N(C)[C@@H](C)C(=O)N[C@@H](CC(N)=O)C(=O)N2CCC[C@H]2C(=O)N[C@@H](CNC(=S)Nc2ccc3c(c2)c2ccccc2n3CC)C(=O)N[C@@H](CC(C)C)C(=O)N2C[C@H](O)C[C@H]2C(=O)N[C@@H](Cc2c[nH]c3ccccc23)C(=O)N[C@@H](CCN)C(=O)N[C@@H](Cc2cn(CC(=O)O)c3ccccc23)C(=O)N1C` [Example 2014] ({CH2CO}-Y[NMeA]NP[Dap](X79)L[Hyp]W[Dab][Trp(1-CH2COOH)][NMeNle][NMeNle]LCG-NH2; thioether N-14) it is 3.8 nM.
Still for that read-out and setting: for `CCCC[C@H]1C(=O)N(C)[C@@H](CCCC)C(=O)N[C@@H](CC(C)C)C(=O)N[C@H](C(=O)NCC(N)=O)CSCC(=O)N[C@@H](Cc2ccc(O)cc2)C(=O)N(C)[C@@H](C)C(=O)N[C@@H](CC(N)=O)C(=O)N2CCC[C@H]2C(=O)N[C@@H](CNC(=O)c2c3ccccc3cc3ccccc23)C(=O)N[C@@H](CC(C)C)C(=O)N2C[C@H](O)C[C@H]2C(=O)N[C@@H](Cc2c[nH]c3ccccc23)C(=O)N[C@@H](CCN)C(=O)N[C@@H](Cc2cn(CC(=O)O)c3ccccc23)C(=O)N1C` [Example 2015] ({CH2CO}-Y[NMeA]NP[Dap](X34)L[Hyp]W[Dab][Trp(1-CH2COOH)][NMeNle][NMeNle]LCG-NH2; thioether N-14) the value was 3.2 nM.
Molecule `CCCC[C@H]1C(=O)N(C)[C@@H](CCCC)C(=O)N[C@@H](CC(C)C)C(=O)N[C@H](C(=O)NCC(N)=O)CSCC(=O)N[C@@H](Cc2ccc(O)cc2)C(=O)N(C)[C@@H](C)C(=O)N[C@@H](CC(N)=O)C(=O)N2CCC[C@H]2C(=O)N[C@@H](CNC(=O)Nc2ccc3ccccc3c2)C(=O)N[C@@H](CC(C)C)C(=O)N2C[C@H](O)C[C@H]2C(=O)N[C@@H](Cc2c[nH]c3ccccc23)C(=O)N[C@@H](CCNC(=O)Nc2ccc3ccccc3c2)C(=O)N[C@@H](Cc2cn(CC(=O)O)c3ccccc23)C(=O)N1C` [Example 3001] ({CH2CO}-Y[NMeA]NP[Dap]([CO-βNA])L[Hyp]W[Dab]([CO-βNA])[Trp(1-CH2COOH)][NMeNle][NMeNle]LCG-NH2; thioether N-14) returned an IC50 of 7.3 nM.
For the molecule `CCCC[C@H]1C(=O)N(C)[C@@H](CCCC)C(=O)N[C@@H](CC(C)C)C(=O)N[C@H](C(=O)NCC(N)=O)CSCC(=O)N[C@@H](Cc2ccc(O)cc2)C(=O)N(C)[C@@H](C)C(=O)N[C@@H](CC(N)=O)C(=O)N2CCC[C@H]2C(=O)N[C@@H](CNC(=S)Nc2ccc3cc[nH]c3c2)C(=O)N[C@@H](CC(C)C)C(=O)N2C[C@H](O)C[C@H]2C(=O)N[C@@H](Cc2c[nH]c3ccccc23)C(=O)N[C@@H](CCNC(=S)Nc2ccc3cc[nH]c3c2)C(=O)N[C@@H](Cc2cn(CC(=O)O)c3ccccc23)C(=O)N1C` [Example 3002] ({CH2CO}-Y[NMeA]NP[Dap](X7)L[Hyp]W[Dab](X7)[Trp(1-CH2COOH)][NMeNle][NMeNle]LCG-NH2; thioether N-14), the half-inhibitory concentration (IC50) under setting [1] stood at 4.3 nM.
Turning to `CCCC[C@H]1C(=O)N(C)[C@@H](CCCC)C(=O)N[C@@H](CC(C)C)C(=O)N[C@H](C(=O)NCC(N)=O)CSCC(=O)N[C@@H](Cc2ccc(O)cc2)C(=O)N(C)[C@@H](C)C(=O)N[C@@H](CC(N)=O)C(=O)N2CCC[C@H]2C(=O)N[C@@H](CNC(=O)Nc2ccc3sccc3c2)C(=O)N[C@@H](CC(C)C)C(=O)N2C[C@H](O)C[C@H]2C(=O)N[C@@H](Cc2c[nH]c3ccccc23)C(=O)N[C@@H](CCNC(=O)Nc2ccc3sccc3c2)C(=O)N[C@@H](Cc2cn(CC(=O)O)c3ccccc23)C(=O)N1C` [Example 3003] ({CH2CO}-Y[NMeA]NP[Dap]([CO-NH(benzothiophen-5-yl)])L[Hyp]W[Dab]([CO-NH(benzothiophen-5-yl)])[Trp(1-CH2COOH)][NMeNle][NMeNle]LCG-NH2; thioether N-14), the IC50 under setting [1] amounted to 2.3 nM.
`CCCC[C@H]1C(=O)N(C)[C@@H](CCCC)C(=O)N[C@@H](CC(C)C)C(=O)N[C@H](C(=O)NCC(N)=O)CSCC(=O)N[C@@H](Cc2ccc(O)cc2)C(=O)N(C)[C@@H](C)C(=O)N[C@@H](CC(N)=O)C(=O)N2CCC[C@H]2C(=O)N[C@@H](CNC(=O)Nc2cccc3ccccc23)C(=O)N[C@@H](CC(C)C)C(=O)N2C[C@H](O)C[C@H]2C(=O)N[C@@H](Cc2c[nH]c3ccccc23)C(=O)N[C@@H](CCNC(=O)Nc2cccc3ccccc23)C(=O)N[C@@H](Cc2cn(CC(=O)O)c3ccccc23)C(=O)N1C` [Example 3005] ({CH2CO}-Y[NMeA]NP[Dap]([CO-NH(1-naphthyl)])L[Hyp]W[Dab]([CO-NH(1-naphthyl)])[Trp(1-CH2COOH)][NMeNle][NMeNle]LCG-NH2; thioether N-14) had an IC50 of 3.2 nM.
Consider `CCCC[C@H]1C(=O)N(C)[C@@H](CCCC)C(=O)N[C@@H](CC(C)C)C(=O)N[C@H](C(=O)NCC(N)=O)CSCC(=O)N[C@@H](Cc2ccc(O)cc2)C(=O)N(C)[C@@H](C)C(=O)N[C@@H](CC(N)=O)C(=O)N2CCC[C@H]2C(=O)N[C@@H](CNC(=S)Nc2cccc3ccccc23)C(=O)N[C@@H](CC(C)C)C(=O)N2C[C@H](O)C[C@H]2C(=O)N[C@@H](Cc2c[nH]c3ccccc23)C(=O)N[C@@H](CCNC(=S)Nc2cccc3ccccc23)C(=O)N[C@@H](Cc2cn(CC(=O)O)c3ccccc23)C(=O)N1C` [Example 3006] ({CH2CO}-Y[NMeA]NP[Dap](X5)L[Hyp]W[Dab](X5)[Trp(1-CH2COOH)][NMeNle][NMeNle]LCG-NH2; thioether N-14), for which, under setting [1], the half-inhibitory concentration (IC50) came out at 2.8 nM.
Same read-out and setting: the figure for `CCCC[C@H]1C(=O)N(C)[C@@H](CCCC)C(=O)N[C@@H](CC(C)C)C(=O)N[C@H](C(=O)NCC(N)=O)CSCC(=O)N[C@@H](Cc2ccc(O)cc2)C(=O)N(C)[C@@H](C)C(=O)N[C@@H](CC(N)=O)C(=O)N2CCC[C@H]2C(=O)N[C@@H](CNC(=S)Nc2ccc3c(c2)OCCO3)C(=O)N[C@@H](CC(C)C)C(=O)N2C[C@H](O)C[C@H]2C(=O)N[C@@H](Cc2c[nH]c3ccccc23)C(=O)N[C@@H](CCNC(=S)Nc2ccc3c(c2)OCCO3)C(=O)N[C@@H](Cc2cn(CC(=O)O)c3ccccc23)C(=O)N1C` [Example 3007] ({CH2CO}-Y[NMeA]NP[Dap](X4)L[Hyp]W[Dab](X4)[Trp(1-CH2COOH)][NMeNle][NMeNle]LCG-NH2; thioether N-14) is 2.6 nM; for `CCCC[C@H]1C(=O)N(C)[C@@H](CCCC)C(=O)N[C@@H](CC(C)C)C(=O)N[C@H](C(=O)NCC(N)=O)CSCC(=O)N[C@@H](Cc2ccc(O)cc2)C(=O)N(C)[C@@H](C)C(=O)N[C@@H](CC(N)=O)C(=O)N2CCC[C@H]2C(=O)N[C@@H](CNC(=S)Nc2ccc3nsnc3c2)C(=O)N[C@@H](CC(C)C)C(=O)N2C[C@H](O)C[C@H]2C(=O)N[C@@H](Cc2c[nH]c3ccccc23)C(=O)N[C@@H](CCNC(=S)Nc2ccc3nsnc3c2)C(=O)N[C@@H](Cc2cn(CC(=O)O)c3ccccc23)C(=O)N1C` [Example 3008] ({CH2CO}-Y[NMeA]NP[Dap](X59)L[Hyp]W[Dab](X59)[Trp(1-CH2COOH)][NMeNle][NMeNle]LCG-NH2; thioether N-14) it is 6.4 nM.
On to `CCCC[C@H]1C(=O)N(C)[C@@H](CCCC)C(=O)N[C@@H](CC(C)C)C(=O)N[C@H](C(=O)NCC(N)=O)CSCC(=O)N[C@@H](Cc2ccc(O)cc2)C(=O)N(C)[C@@H](C)C(=O)N[C@@H](CC(N)=O)C(=O)N2CCC[C@H]2C(=O)N[C@@H](CNC(=O)c2ccc3ccccc3c2)C(=O)N[C@@H](CC(C)C)C(=O)N2C[C@H](O)C[C@H]2C(=O)N[C@@H](Cc2c[nH]c3ccccc23)C(=O)N[C@@H](CCNC(=O)c2ccc3ccccc3c2)C(=O)N[C@@H](Cc2cn(CC(=O)OC)c3ccccc23)C(=O)N1C` [Example 3009] ({CH2CO}-Y[NMeA]NP[Dap](2Naphthoyl)L[Hyp]W[Dab](2Naphthoyl)[Trp(1-CH2CO2Me)][NMeNle][NMeNle]LCG-NH2; thioether N-14), for which, under setting [1], the IC50 turned out to be 9 nM.
